According to ChEMBL document CHEMBL6109129, “Discovery of Conformationally Constrained Dihydro Benzo-Indole Derivatives as Metallo-β-Lactamase Inhibitors to Tackle Multidrug-Resistant Bacterial Infections” (J Med Chem, 2025):
In brackets after ≈: the same amount, converted by molar mass.

How the values were obtained:
Klebsiella pneumoniae [1] = experiment: Synergistic antibacterial activity against carbapenem-resistant Klebsiella pneumoniae BAA-2473 assessed as reduction in microbial growth at 0.5 ug/ml measured after 16 to 18 hrs in presence of meropenem by microbial dilution method; type: functional; settings: dose 0.5 µg/ml, time 16-18 hrs
[2] = system: Klebsiella pneumoniae subsp. pneumoniae; experiment: Synergistic antibacterial activity against carbapenem-resistant Klebsiella pneumoniae subsp. pneumoniae BAA-2472 assessed as reduction in microbial growth at 0.5 ug/ml measured after 16 to 18 hrs in presence of meropenem by microbial dilution method; type: functional; settings: dose 0.5 µg/ml, time 16-18 hrs
Escherichia coli [3] = experiment: Synergistic antibacterial activity against carbapenem-resistant Escherichia coli BAA-2471 assessed as reduction in microbial growth at 0.5 ug/ml measured after 16 to 18 hrs in presence of meropenem by microbial dilution method; type: functional; settings: dose 0.5 µg/ml, time 16-18 hrs
[4] = system: Klebsiella pneumoniae subsp. pneumoniae; experiment: Synergistic antibacterial activity against carbapenem-resistant Klebsiella pneumoniae subsp. pneumoniae BAA-2470 assessed as reduction in microbial growth at 0.5 ug/ml measured after 16 to 18 hrs in presence of meropenem by microbial dilution method; type: functional; settings: dose 0.5 µg/ml, time 16-18 hrs
[5] = system: Klebsiella pneumoniae subsp. pneumoniae; experiment: Synergistic antibacterial activity against carbapenem-resistant Klebsiella pneumoniae BAA-2470 assessed as reduction in microbial growth at 16 ug/ml measured after 16 to 18 hrs in presence of meropenem by microbial dilution method; type: functional; settings: dose 16 µg/ml, time 16-18 hrs
Escherichia coli [6] = experiment: Synergistic antibacterial activity against carbapenem-resistant Escherichia coli BAA-2469 assessed as reduction in microbial growth at 8 ug/ml measured after 16 to 18 hrs in presence of meropenem by microbial dilution method; type: functional; settings: dose 8 µg/ml, time 16-18 hrs
Enterobacter cloacae = experiment: Synergistic antibacterial activity against carbapenem-resistant Enterobacter cloacae BAA-2468 assessed as reduction in microbial growth at 16 ug/ml measured after 16 to 18 hrs in presence of meropenem by microbial dilution method; type: functional; settings: dose 16 µg/ml, time 16-18 hrs
Klebsiella pneumoniae [7] = experiment: Synergistic antibacterial activity against carbapenem-resistant Klebsiella pneumoniae BAA-2473 assessed as reduction in microbial growth at 8 ug/ml measured after 16 to 18 hrs in presence of imipenem by microbial dilution method; type: functional; settings: dose 8 µg/ml, time 16-18 hrs
Klebsiella pneumoniae [8] = experiment: Synergistic antibacterial activity against carbapenem-resistant Klebsiella pneumoniae BAA-2473 assessed as reduction in microbial growth at 16 ug/ml measured after 16 to 18 hrs in presence of imipenem by microbial dilution method; type: functional; settings: dose 16 µg/ml, time 16-18 hrs
Escherichia coli [9] = experiment: Synergistic antibacterial activity against carbapenem-resistant Escherichia coli BAA-2471 assessed as reduction in microbial growth at 0.5 ug/ml measured after 16 to 18 hrs in presence of imipenem by microbial dilution method; type: functional; settings: dose 0.5 µg/ml, time 16-18 hrs
Escherichia coli [10] = experiment: Synergistic antibacterial activity against carbapenem-resistant Escherichia coli 571307 assessed as reduction in microbial growth at 16 ug/ml measured after 16 to 18 hrs in presence of meropenem by microbial dilution method; type: functional; settings: dose 16 µg/ml, time 16-18 hrs
Klebsiella pneumoniae [11] = experiment: Synergistic antibacterial activity against carbapenem-resistant Klebsiella pneumoniae 552439 assessed as reduction in microbial growth at 4 ug/ml measured after 16 to 18 hrs in presence of meropenem by microbial dilution method; type: functional; settings: dose 4 µg/ml, time 16-18 hrs
Klebsiella pneumoniae [12] = experiment: Synergistic antibacterial activity against carbapenem-resistant Klebsiella pneumoniae 538961 assessed as reduction in microbial growth at 16 ug/ml measured after 16 to 18 hrs in presence of meropenem by microbial dilution method; type: functional; settings: dose 16 µg/ml, time 16-18 hrs
Klebsiella pneumoniae [13] = experiment: Synergistic antibacterial activity against carbapenem-resistant Klebsiella pneumoniae 571278 assessed as reduction in microbial growth at 4 ug/ml measured after 16 to 18 hrs in presence of imipenem by microbial dilution method; type: functional; settings: dose 4 µg/ml, time 16-18 hrs
Klebsiella pneumoniae [14] = experiment: Synergistic antibacterial activity against carbapenem-resistant Klebsiella pneumoniae 565345 assessed as reduction in microbial growth at 16 ug/ml measured after 16 to 18 hrs in presence of imipenem by microbial dilution method; type: functional; settings: dose 16 µg/ml, time 16-18 hrs
Escherichia coli [15] = experiment: Synergistic antibacterial activity against carbapenem-resistant Escherichia coli 571307 assessed as reduction in microbial growth at 16 ug/ml measured after 16 to 18 hrs in presence of imipenem by microbial dilution method; type: functional; settings: dose 16 µg/ml, time 16-18 hrs
Escherichia coli [16] = experiment: Synergistic antibacterial activity against carbapenem-resistant Escherichia coli 567975 assessed as reduction in microbial growth at 16 ug/ml measured after 16 to 18 hrs in presence of imipenem by microbial dilution method; type: functional; settings: dose 16 µg/ml, time 16-18 hrs
Klebsiella pneumoniae [17] = experiment: Synergistic antibacterial activity against carbapenem-resistant Klebsiella pneumoniae 552439 assessed as reduction in microbial growth at 4 ug/ml measured after 16 to 18 hrs in presence of imipenem by microbial dilution method; type: functional; settings: dose 4 µg/ml, time 16-18 hrs
Klebsiella pneumoniae [18] = experiment: Synergistic antibacterial activity against carbapenem-resistant Klebsiella pneumoniae 538961 assessed as reduction in microbial growth at 16 ug/ml measured after 16 to 18 hrs in presence of imipenem by microbial dilution method; type: functional; settings: dose 16 µg/ml, time 16-18 hrs
Escherichia coli [19] = experiment: Synergistic antibacterial activity against carbapenem-resistant Escherichia coli 541588 assessed as reduction in microbial growth at 4 ug/ml measured after 16 to 18 hrs in presence of imipenem by microbial dilution method; type: functional; settings: dose 4 µg/ml, time 16-18 hrs
[20] = Kinetic solubility of the compound in PBS buffer at pH 7.4 measured after 24 hrs by HPLC analysis; type: physicochemical; settings: read-out: Kinetic_solubility
[21] = Plasma protein binding in human assessed as unbound fraction at 10 uM measured after 5 hrs by LC-MS/MS analysis; type: ADME, cell-free
[22] = Metabolic stability in mouse liver microsomes assessed as parent compound remaining at 1 uM measured at 60 mins in presence of NADPH by LC-MS/MS analysis; type: ADME, Microsome; settings: read-out: Stability
[23] = Metabolic stability in human liver microsomes assessed as parent compound remaining at 1 uM measured at 60 mins in presence of NADPH by LC-MS/MS analysis; type: ADME, Microsome; settings: read-out: Stability
HepG2 = experiment: Cytotoxicity in human HepG2 cells assessed as inhibition of cell growth measured after 24 hrs by MTT assay; type: functional, cell-based; settings: HepG2, 24 h

Compound: COc1ccc(Cl)cc1-c1c(C(=O)O)[nH]c2c1CCc1ccccc1-2
- MIC (Klebsiella pneumoniae [1]): > 64 µg/mL
- MIC [2]: > 64 µg/mL
- MIC (Escherichia coli [3]): 64 µg/mL
- MIC [4]: 32 µg/mL
- MIC [5]: 4 µg/mL
- MIC (Escherichia coli [6]): 4 µg/mL
- MIC (Enterobacter cloacae): 4 µg/mL
- MIC (Klebsiella pneumoniae [7]): 16 µg/mL
- MIC (Klebsiella pneumoniae [8]): 8 µg/mL
- MIC (Escherichia coli [9]): 32 µg/mL
- MIC (Escherichia coli [10]): 0.5 µg/mL
- MIC (Klebsiella pneumoniae [11]): 16 µg/mL
- MIC (Klebsiella pneumoniae [12]): 4 µg/mL
- MIC (Klebsiella pneumoniae [13]): 8 µg/mL
- MIC (Klebsiella pneumoniae [14]): 8 µg/mL
- MIC (Escherichia coli [15]): 2 µg/mL
- MIC (Escherichia coli [16]): 1 µg/mL
- MIC (Klebsiella pneumoniae [17]): 4 µg/mL
- MIC (Klebsiella pneumoniae [18]): 2 µg/mL
- MIC (Escherichia coli [19]): 1 µg/mL
- solubility kinetic at 24 h [20]: 19.7 µg/mL (≈ 55.7 µM)
- fraction unbound at 5 h, 10 µM [21]: 0.992
- remaining at 1 h, 1 µM [22]: 44.2%
- remaining at 1 h, 1 µM [23]: 56%
- IC50 (HepG2): > 400 µM
